Assay results as given in patent US6005099A, “Glucosamine disaccharides, method for their preparation, pharmaceutical composition comprising same, and their use” (priority 1993, dated 1999).
Values after ≈ are worked out from the molar mass of the structure shown. “Also recorded” adds a separate entry of the source. Counter-ions that a name gives are not always drawn.

Tests used:
[1] = Solubility in water; format: physicochemical; details: sodium salt
[2] = tested on: protease in LAL; test: Endotoxicity, chromogenic LAL test with 0.1 mg/ml bovine serum albumin; format: biochemical, Limulus polyphemus; details: n=4 or 6
Protocol: (§1) The endotoxicity was also measured in the chromogenic test, in which the activation of a protease in LAL by LPS was measured using a chromogen (Ac-Ile-Glu-Ala-Arg-pNA; Bio Whittaker Kit No. 50-650U). The colour formation (liberation of pNA (p-nitroaniline)) was measured at 405 nm.
(§2) Samples were pre-incubated at 37° C. during 10 minutes and subsequently chromogen-comprising LAL was added. The time required for reaching an optical density of 0.2 at 405 nm was measured. The endotoxin activity was calculated in comparison to a reference curve obtained for LPS standards.
The endotoxicity of the disaccharides E, F and G was determined using the chromogenic LAL test (see infra). However, instead of using 1 mg/ml bovine serum albumin, 0.1 mg/ml has been used. The results (n=4 or 6) were obtained in two series of experiments and are shown hereafter.

[3] = tested on: murine peritoneal macrophages; test: Stimulation of nitrite production in murine peritoneal macrophages; format: cell-based; details: quantity determined by HPLC absorption vs disaccharide A
Protocol: The biological activity of the fractions was tested by the stimulation of nitrite production in murine peritoneal macrophages as described hereinbefore.
The quantity of each analogue in the stock solution was determined from the absorption on HPLC with reference to that of disaccharide A. The fractions show activities of the same order as disaccharide A (FIG. 8). […] The position of the acyloxyacyl, 2 versus 2', has only a minor influence on the activity.
In order to eliminate the possibility that activity was due to contamination of the samples by other substances such as LPS, disaccharides E, F, G and H were repurified on reversed-phase HPLC and the regions of the HPLC baseline just before and just after the peak were also collected and treated in the same way as the fractions containing the peaks of material. The activity of the peak fractions and the baseline fractions was tested. […] The stimulation of nitrite production is thus specifically associated with the lipid A analogues.

[4] = tested on: protease in LAL; test: Endotoxicity, chromogenic LAL test; format: biochemical, Limulus polyphemus; details: ng LPS per ng product, n = 1-10
Protocol: (§3) The endotoxicity and the biological activity of disaccharide A (example 1) and of disaccharide B (example 2) were determined and compared to that of lipopolysaccharide originating from Escherichia coli O111:B4 (Sigma, Product No. L3024), lipid A (Sigma, Product No. L5399; used as a starting material in example 4), and 3-O-deacylated lipid A originating from lipid A of Escherichia coli F583 (prepared as in the comparative example), but without purification by HPLC.
(§4) The endotoxicity was determined in the Limulus amoebocyte lysate (LAL) test. This test is based on the observation that endotoxins induce coagulation of the hemolymph of Limulus polyphemus.
as §1, §2
(§5) The results are expressed in table 3 as: ng LPS per ng product.

[5] = tested on: macrophages of C57BL/6 mice; test: Nitric oxide (NO) production in supernatants of macrophages; format: cell-based
Protocol: Bone marrow was collected from hip, femur and tibia of six week old male C57BL/6 mice.
After 7 days the mature macrophages were collected and resuspended in Dulbecco modified medium comprising 5% foetal calf serum to a concentration of 7×10^6 cells per ml. This cell suspension was mixed 1:1, (v/v) with samples diluted in the same medium and used in the biological tests performed in microplates with 70,000 cells/well (incubation at 37° C. for 22 hours, 100% humidity and 8% CO2).
Nitric oxide (NO) is produced by macrophages in response to bacterial infection and in particular LPS. NO seems to have cytostatic and cytotoxic properties. NO is extremely reactive and rapidly converted by oxidation into nitrite and nitrate.
The nitrite formation was determined using the Griess test (addition of 1:1, (v/v) N-(1-naphthyl)ethylene diamine hydrochloride [1 g/l in water] and p-aminobenzenesulphonamide [10 g/l in 5% H3 PO4 ]). The nitrite concentration in supernatants of activated macrophages was calculated in comparison to NaNO2 standards.

[6] = tested on: Limulus amoebocyte lysate (LAL); test: Endotoxicity, LAL gelification test; format: biochemical, Limulus polyphemus; details: ng LPS per ng product, n = 2-12
Protocol: as §3, §4
(§6) In the gelification test serial dilutions of the compound to be tested were mixed with LAL 1:1, (v/v) (Haemachem Inc., sensitivity LAL 0.06 endotoxin units/ml), and the mixture was incubated for one hour at 37° C. Then gel formation was monitored by measuring the optical density at 405 nm. The last dilution which formed a gel was determined by inverting the reaction microplate. The endotoxin activity in the samples was determined by comparison with dilutions of a lipopolysaccharide standard (1 endotoxin unit=0.1 ng LPS).
as §5

[7] = tested on: Limulus amoebocyte lysate (LAL); test: Endotoxicity in the limulus amoebocyte lysate (LAL) test (gelification and chromogenic); format: biochemical, Limulus polyphemus
Protocol: as §3, §4, §6
The endotoxicity was also measured in the chromogenic test, in which the activation of a protease in LAL by LPS was measured using a chromogen (Ac-Ile-Glu-Ala-Arg-pNA; Bio Whittaker Kit No. 50-650U). […]

CCCCCCCCCCCC(=O)O[C@H](CCCCCCCCCCC)CC(=O)N[C@H]1[C@H](OC[C@H]2O[C@H](OP(=O)(O)O)[C@H](NC(=O)C[C@H](O)CCCCCCCCCCC)[C@@H](O)[C@@H]2O)O[C@H](CO)[C@@H](OP(=O)(O)O)[C@@H]1O [sodium salt]
Solubility in water, in words [1]: freely soluble in water
solubility [1]: ≥ 100 mg/mL

CCCCCCCCCC[C@H](O)C(=O)O[C@H](CCCCCCCCC)CC(=O)N[C@H]1[C@H](OC[C@H]2O[C@H](OP(=O)(O)O)[C@H](NC(=O)C[C@H](O)CCCCCCCCC)[C@@H](O)[C@@H]2O)O[C@H](CO)[C@@H](OP(=O)(O)O)[C@@H]1O [disaccharide E, 2-Deoxy-6-O-[2-deoxy-2-[(R)-3-[(S)-2-hydroxydodecanoyloxy]-dodecanoylamino]-4-O-phosphono-β-D-glucopyranosyl]-2-[(R)-3-hydroxydodecanoylamino]-α-D-glucopyranosyl dihydrogenphosphate]
Endotoxic activity in LAL [2]: 0.000005 ± 0.000002 mg/mg

CCCCCCCCCCCC(=O)O[C@H](CCCCCCCCC)CC(=O)N[C@H]1[C@H](OC[C@H]2O[C@H](OP(=O)(O)O)[C@H](NC(=O)C[C@H](O)CCCCCCCCC)[C@@H](O)[C@@H]2O)O[C@H](CO)[C@@H](OP(=O)(O)O)[C@@H]1O [disaccharide G, 2-Deoxy-6-O-[2-deoxy-2-[(R)-3-dodecanoyloxydodecanoylamino]-4-O-phosphono-β-D-glucopyranosyl]-2-[(R)-3-hydroxydodecanoylamino]-α-D-glucopyranosyl dihydrogenphosphate]
Endotoxic activity in LAL [2]: 0.00006 ± 0.00003 mg/mg

CCCCCCCCCCCC(=O)O[C@H](CCCCCCCCC)CC(=O)N[C@H]1[C@H](OC[C@H]2O[C@H](OP(=O)(O)O)[C@H](NC(=O)C[C@@H](CCCCCCCCC)OC(=O)[C@@H](O)CCCCCCCCCC)[C@@H](O)[C@@H]2O)O[C@H](CO)[C@@H](OP(=O)(O)O)[C@@H]1O [disaccharide H, 2-Deoxy-6-O-[2-deoxy-2-[(R)-3-dodecanoyloxydodecanoylamino]-4-O-phosphono-β-D-glucopyranosyl]-2-[(R)-3-[(S)-2-hydroxydodecanoyloxy]-dodecanoylamino]-α-D-glucopyranosyl dihydrogenphosphate]
Stimulation of nitrite production, in words [3]: most active

CCCCCCCCCCCCCC(=O)O[C@H](CCCCCCCCCCC)CC(=O)N[C@H]1[C@H](OC[C@H]2O[C@H](OP(=O)(O)O)[C@H](NC(=O)C[C@H](O)CCCCCCCCCCC)[C@@H](O)[C@@H]2O)O[C@H](CO)[C@@H](OP(=O)(O)O)[C@@H]1O [disaccharide B, 2-Deoxy-6-O-[2-deoxy-2-[(R)-3-tetradecanoyloxytetradecanoylamino]-4-O-phosphono-β-D-glucopyranosyl]-2-[(R)-3-hydroxytetradecanoylamino]-α-D-glucopyranosyl dihydrogenphosphate]
Endotoxic activity in LAL, chromogen [4]: 0.0008 ng/ng
EC50 ([5]; Mus musculus, Macrophage, product concentration corresponding to 50% activity, 22 hours, 37° C.): 0.05 µg/mL (≈ 0.043 µM)
minimal effective concentration ([5]; Mus musculus, Macrophage, product concentration corresponding to induced NO activity, 22 hours, 37° C., read-out: NO production: Minimum activity (product concentration)): 0.0005 µg/mL
NO activity at 50% in nmol of NO2- /ml ([5]; extrapolated from the series dilution curve): 5 nmol of NO2- /ml
NO production, in words ([5]; macrophages of C57BL/6 mice): induce NO production of the same order; also recorded: as strongly as lipid A and 3-O-deacylated lipid A
NO production: Maximum activity (product concentration) ([5]; product concentration corresponding to induced NO activity, 22 hours, 37° C.): 16 µg/mL
Endotoxic activity in LAL, gelification [6]: 0.004 ± 0.002 ng/ng
Endotoxicity in LAL, in words [7]: lowest endotoxicity

CCCCCCCCCC[C@H](O)C(=O)O[C@H](CCCCCCCCC)CC(=O)N[C@H]1[C@@H](OP(=O)(O)O)O[C@H](CO[C@@H]2O[C@H](CO)[C@@H](OP(=O)(O)O)[C@H](O)[C@H]2NC(=O)C[C@H](O)CCCCCCCCC)[C@@H](O)[C@@H]1O [disaccharide F, 2-Deoxy-6-O-[2-deoxy-2-[(R)-3-hydroxydodecanoylamino]-4-O-phosphono-β-D-glucopyranosyl]-2-[(R)-3-[(S)-2-hydroxydodecanoyloxy]-dodecanoylamino]-α-D-glucopyranosyl dihydrogenphosphate]
Endotoxic activity in LAL [2]: 0.000025 ± 0.000026 mg/mg
